We go through 16 compounds from paper PMC7400577 (Scientific Reports, 2020).

Holding throughout (assay type): cell-based
For experiment [1], the target named is T1, hBGT1 (Homo sapiens, UniProt P48065).
T1 construct: expressed in transfected cells
T1 sequence (P48065 1-614): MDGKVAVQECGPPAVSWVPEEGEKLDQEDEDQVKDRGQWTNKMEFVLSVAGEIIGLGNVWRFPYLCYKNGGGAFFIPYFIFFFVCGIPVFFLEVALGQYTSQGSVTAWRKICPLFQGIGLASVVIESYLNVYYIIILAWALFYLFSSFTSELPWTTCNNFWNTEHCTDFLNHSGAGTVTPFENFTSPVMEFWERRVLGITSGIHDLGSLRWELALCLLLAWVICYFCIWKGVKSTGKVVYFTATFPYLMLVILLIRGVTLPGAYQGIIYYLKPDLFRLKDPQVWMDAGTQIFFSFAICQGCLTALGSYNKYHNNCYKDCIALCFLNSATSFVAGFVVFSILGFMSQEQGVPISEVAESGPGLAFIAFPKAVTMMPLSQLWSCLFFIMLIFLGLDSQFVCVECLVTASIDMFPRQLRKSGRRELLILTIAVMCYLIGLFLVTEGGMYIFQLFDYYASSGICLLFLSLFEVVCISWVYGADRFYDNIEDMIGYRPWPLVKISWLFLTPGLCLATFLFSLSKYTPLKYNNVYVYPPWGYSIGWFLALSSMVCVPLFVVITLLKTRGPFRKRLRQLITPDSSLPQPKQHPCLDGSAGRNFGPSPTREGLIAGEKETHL
Particulars: for IC50: 30 nM [3H]GABA, 3 min, CHO Flp-In cells stably expressing hBGT1; for subtype-selectivity for hBGT1 over the other hGATs: estimated from [3H]GABA uptake IC50 values, CHO Flp-In cells. As to the method:
(§1) CHO Flp-In and tsA201 cells were cultured at 37 °C in a humidified atmosphere of […] and 5% CO2. As previously described[38],[63], CHO Flp-In cells stably expressing the hGATs were cultured in Ham’s F12 Nutrient Mix supplemented with 10% FBS, 1% P/S and plasmocin (5 µg/mL) under the selection pressure of hygromycin B (200 µg/mL). DMEM with GlutaMAX-I supplemented with 10% FBS and 1% P/S was used as growth medium for the tsA201 cells, which were transfected with DNA constructs using PolyFect according to the manufacturer’s specifications (Qiagen, West Sussex, UK), but with half of the recommended reagent volumes.
(§2) Uptake assays were performed in PDL-coated white 96-well polystyrene cell culture microplates (PerkinElmer, Boston, MA, USA) as previously described[38],[63]. […] Assay buffer was HBSS supplemented with 20 mM HEPES, 1 mM CaCl2 and 1 mM MgCl2, pH 7.4. […] After termination, scintillation liquid (MicroScint-20, PerkinElmer) was added and the radioactivity measured in a TopCount NXT Microplate Scintillation Counter (PerkinElmer).
(§3) Data analysis and statistical evaluation were performed in GraphPad Prism 7.02 (GraphPad Software, San Diego, CA, USA). Concentration-uptake inhibition curves, generated from the radioligand-based uptake assays, were fitted by non-linear regression, using the equation for sigmoidal concentration–response with variable slope: Y = Bottom + (Top–Bottom)/(1 + 10^((logIC50 − X) × HillSlope)), where Y is the response, X is the logarithm of the concentration, Top and Bottom are the plateaus in same units as Y, logIC50 is the concentration giving a response halfway between Bottom and Top, and the HillSlope is the steepness of the curve. For the substrate concentration–response curves generated from the FMP assay, the same equation was used but with logEC50 instead for logIC50. Unless otherwise stated, data are presented as means ± S.E.M. of at least three independent pooled experiments performed in triplicates.

The target of experiment [2] is T2, hGAT3 (Homo sapiens, UniProt P48066).
T2 construct: expressed in transfected cells
T2 sequence (P48066 1-632): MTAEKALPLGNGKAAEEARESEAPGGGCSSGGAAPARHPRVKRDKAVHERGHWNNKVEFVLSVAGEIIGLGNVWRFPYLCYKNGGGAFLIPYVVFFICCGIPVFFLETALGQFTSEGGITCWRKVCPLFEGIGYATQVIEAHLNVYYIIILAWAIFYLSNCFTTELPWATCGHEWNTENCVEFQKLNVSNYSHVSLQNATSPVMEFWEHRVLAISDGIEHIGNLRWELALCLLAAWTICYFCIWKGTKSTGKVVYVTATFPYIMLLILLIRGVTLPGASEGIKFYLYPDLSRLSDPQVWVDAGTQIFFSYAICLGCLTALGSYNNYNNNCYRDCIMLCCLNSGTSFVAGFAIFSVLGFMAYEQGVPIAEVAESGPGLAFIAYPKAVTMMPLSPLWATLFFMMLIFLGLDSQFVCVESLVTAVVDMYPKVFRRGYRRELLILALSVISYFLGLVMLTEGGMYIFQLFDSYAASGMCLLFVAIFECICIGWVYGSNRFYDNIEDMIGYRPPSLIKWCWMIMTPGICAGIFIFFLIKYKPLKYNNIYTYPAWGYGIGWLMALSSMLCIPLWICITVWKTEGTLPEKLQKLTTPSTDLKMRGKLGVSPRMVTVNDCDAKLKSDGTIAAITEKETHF
Put plainly: [3H]GABA uptake inhibition at hGAT3 stably expressed in CHO Flp-In cells. Conditions: 30 nM [3H]GABA, 3 min, CHO Flp-In cells stably expressing hGAT3; read-out: IC50 hGAT3. How it is done:
as §1, §2, §3

Experiment [3] addresses T3, hGAT1 (Homo sapiens, UniProt P30531).
T3 construct: expressed in transfected cells
Description: [3H]GABA uptake inhibition at hGAT1 stably expressed in CHO Flp-In cells. Particulars: 30 nM [3H]GABA, 3 min, CHO Flp-In cells stably expressing hGAT1. As to the method:
as §1, §2, §3

In experiment [4] the target is T4, hGAT2 (Homo sapiens, UniProt Q9NSD5).
T4 construct: expressed in transfected cells
T4 sequence (Q9NSD5 1-602): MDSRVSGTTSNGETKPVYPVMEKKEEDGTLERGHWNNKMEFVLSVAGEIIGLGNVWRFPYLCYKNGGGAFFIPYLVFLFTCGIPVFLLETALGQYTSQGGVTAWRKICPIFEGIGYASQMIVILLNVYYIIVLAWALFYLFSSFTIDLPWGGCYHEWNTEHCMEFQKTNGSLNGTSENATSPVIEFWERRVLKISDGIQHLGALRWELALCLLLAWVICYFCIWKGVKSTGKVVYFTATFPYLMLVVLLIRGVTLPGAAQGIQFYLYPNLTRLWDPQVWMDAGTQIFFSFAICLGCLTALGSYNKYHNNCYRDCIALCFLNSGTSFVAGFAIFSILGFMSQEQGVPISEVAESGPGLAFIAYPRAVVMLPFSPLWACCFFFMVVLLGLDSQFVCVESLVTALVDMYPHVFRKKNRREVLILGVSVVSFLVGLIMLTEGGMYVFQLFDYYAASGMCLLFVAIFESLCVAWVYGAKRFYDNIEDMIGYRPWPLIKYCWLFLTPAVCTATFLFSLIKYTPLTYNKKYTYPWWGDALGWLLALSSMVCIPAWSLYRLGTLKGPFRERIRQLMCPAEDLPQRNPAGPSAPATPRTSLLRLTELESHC
Put plainly: [3H]GABA uptake inhibition at hGAT2 stably expressed in CHO Flp-In cells. Particulars: 30 nM [3H]GABA, 3 min, CHO Flp-In cells stably expressing hGAT2. As to the method: as §1, §2, §3

The target in experiment [5] is T5, hBGT1 wt (Homo sapiens, UniProt P48065).
T5 construct: expressed in transfected cells; host or cells: tsA201 cells, transient (PolyFect), pcDNA5/FRT vector
T5 sequence (P48065 1-614): T1 sequence (P48065 1-614)
Put plainly: [3H]GABA uptake inhibition at wt hBGT1 transiently expressed in tsA201 cells. Particulars: 30 nM [3H]GABA, tsA201 cells transiently expressing wt hBGT1.

Setting [6] is: read-out: pIC50 ± S.E.M. hBGT1 (converted).
[7] abbreviates: read-out: pIC50 ± S.E.M. hGAT2 (converted).

Read-outs that look alike come from different tables or passages of the source. A value given as a limit tells only on which side of the number the result lay.

T3 sequence (P30531 whole entry): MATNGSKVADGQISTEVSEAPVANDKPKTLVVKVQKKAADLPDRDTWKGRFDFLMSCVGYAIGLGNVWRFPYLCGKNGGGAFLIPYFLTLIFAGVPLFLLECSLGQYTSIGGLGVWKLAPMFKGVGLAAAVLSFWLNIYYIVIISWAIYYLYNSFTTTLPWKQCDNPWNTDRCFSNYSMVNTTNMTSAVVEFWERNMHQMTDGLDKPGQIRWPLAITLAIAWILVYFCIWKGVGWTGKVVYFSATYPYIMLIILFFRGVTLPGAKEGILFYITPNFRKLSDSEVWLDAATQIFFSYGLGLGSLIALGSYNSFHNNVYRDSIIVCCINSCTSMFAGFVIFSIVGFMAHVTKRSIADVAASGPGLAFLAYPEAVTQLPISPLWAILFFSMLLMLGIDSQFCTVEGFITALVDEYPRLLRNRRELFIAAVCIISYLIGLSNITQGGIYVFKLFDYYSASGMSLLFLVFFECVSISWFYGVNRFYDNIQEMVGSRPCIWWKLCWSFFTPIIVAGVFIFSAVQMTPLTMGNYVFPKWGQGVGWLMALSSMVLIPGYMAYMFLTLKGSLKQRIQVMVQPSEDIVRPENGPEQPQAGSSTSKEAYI

Take `C[C@@H]1N=C(N)NC[C@@H]1C(=O)O` (relative stereo) [l-15]: the IC50 in experiment [1] (setting [6]) was 41.7 µM.
In the case of `NC1=N[C@@H](CCc2ccc(-c3ccccc3)cc2)[C@@H](C(=O)O)CN1` (relative stereo) [l-19], the IC50 in experiment [2], in experiment [1] (read-out: IC50 hBGT1), in experiment [3] (read-out: IC50 hGAT1) and in experiment [4] (read-out: IC50 hGAT2) was over 1000 µM each time.
`C[C@@H]1N=C(N)NC[C@@H]1C(=O)O` (single isomer, unassigned) [l-15b]: the IC50 in experiment [2] was over 1000 µM; in experiment [1] (read-out: IC50 hBGT1) it was 442 µM; in experiment [1] (setting [6]), 417 µM; in experiment [3] (read-out: IC50 hGAT1) it was over 1000 µM; in experiment [4] (read-out: IC50 hGAT2) it was over 1000 µM. Also, in experiment [1], the “subtype-selectivity for hBGT1 over the other hGATs” value (shortened to “subtype-selectivity for hBGT1”) is recorded as 2–3 times.
For `C[C@H]1N=C(N)NC[C@@H]1C(=O)O` (single isomer, unassigned) [u-15a], the IC50 in experiment [2] was over 1000 µM; in experiment [1] (read-out: IC50 hBGT1) it was 292 µM; in experiment [1] (setting [6]) it was 269 µM; in experiment [3] (read-out: IC50 hGAT1), over 1000 µM; in experiment [4] (read-out: IC50 hGAT2) it was over 1000 µM. Besides, the “subtype-selectivity for hBGT1” value in experiment [1] is 2–3 times.
For `C[C@H]1N=C(N)NC[C@@H]1C(=O)O` (single isomer, unassigned) [u-15b], the IC50 was over 1000 µM in experiment [2]; 85 µM in experiment [1] (read-out: IC50 hBGT1); 77.6 µM in experiment [1] (setting [6]); over 1000 µM in experiment [3] (read-out: IC50 hGAT1); over 1000 µM in experiment [4] (read-out: IC50 hGAT2). Besides, the “subtype-selectivity for hBGT1” value in experiment [1] is “at least 12 times”.
Take `NC1=NCC(C(=O)O)CN1CCC(c1ccccc1)c1ccccc1` (stereo not drawn) [compound 6]: the IC50 in experiment [2], in experiment [1] (read-out: IC50 hBGT1), in experiment [3] (read-out: IC50 hGAT1) and in experiment [4] (read-out: IC50 hGAT2) was over 1000 µM throughout.
Take `NC1=NCC(C(=O)O)CN1CCCC(c1ccccc1)c1ccccc1` (stereo not drawn) [compound 7]: the IC50 in experiment [2], in experiment [1] (read-out: IC50 hBGT1), in experiment [3] (read-out: IC50 hGAT1) and in experiment [4] (read-out: IC50 hGAT2) was over 1000 µM throughout.
As to `Cc1ccsc1C(=CCCN1CC(C(=O)O)CN=C1N)c1sccc1C` (stereo not drawn) [compound 8], the IC50 was 621 µM in experiment [5] (read-out: IC50 BGT1 wt) and 631 µM in experiment [5] (read-out: pIC50 ± S.E.M. BGT1 wt (converted)).
Take `NC1=NCC(C(=O)O)=CN1Cc1ccccc1` [compound 9]: the IC50 in experiment [5] (read-out: IC50 BGT1 wt) was over 1000 µM.
As to `O=C(O)C1CN=C(NCCc2ccccc2)NC1` (stereo not drawn) [compound 10], the IC50 was over 1000 µM in experiment [2]; over 1000 µM in experiment [1] (read-out: IC50 hBGT1); 439 µM in experiment [3] (read-out: IC50 hGAT1); 427 µM in experiment [3] (read-out: pIC50 ± S.E.M. hGAT1 (converted)); over 1000 µM in experiment [4] (read-out: IC50 hGAT2).
As for `CC1=C(C(=O)O)CNC(N)=N1` [compound 12], the IC50 in experiment [2], in experiment [1] (read-out: IC50 hBGT1), in experiment [3] (read-out: IC50 hGAT1) and in experiment [4] (read-out: IC50 hGAT2) was over 1000 µM throughout.
Turning to `CCCC1=C(C(=O)O)CNC(N)=N1` [compound 13], the IC50 in experiment [2] is over 1000 µM; in experiment [1] (read-out: IC50 hBGT1), over 1000 µM; in experiment [3] (read-out: IC50 hGAT1), over 1000 µM; in experiment [4] (read-out: IC50 hGAT2) it was 530 µM; in experiment [4] (setting [7]), 501 µM.
Turning to `CC(C)C1=C(C(=O)O)CNC(N)=N1` [compound 14], the IC50 in experiment [2] is over 1000 µM; in experiment [1] (read-out: IC50 hBGT1) it was over 1000 µM; in experiment [3] (read-out: IC50 hGAT1), over 1000 µM; in experiment [4] (read-out: IC50 hGAT2), 1010 µM; in experiment [4] (setting [7]), 955 µM.
Regarding `CCCC1N=C(N)NCC1C(=O)O` (stereo not drawn) [compound 16], the IC50 in experiment [2] was over 1000 µM; in experiment [1] (read-out: IC50 hBGT1) it was over 1000 µM; in experiment [3] (read-out: IC50 hGAT1), over 1000 µM; in experiment [4] (read-out: IC50 hGAT2) it was 601 µM; in experiment [4] (setting [7]), 589 µM.
Take `CC(C)C1N=C(N)NCC1C(=O)O` (stereo not drawn) [compound 17]: the IC50 in experiment [2], in experiment [1] (read-out: IC50 hBGT1), in experiment [3] (read-out: IC50 hGAT1) and in experiment [4] (read-out: IC50 hGAT2) was over 1000 µM each time.
As to `NC1=NC(CCc2ccccc2)C(C(=O)O)CN1` (stereo not drawn) [l-18], the IC50 in experiment [2], in experiment [1] (read-out: IC50 hBGT1), in experiment [3] (read-out: IC50 hGAT1) and in experiment [4] (read-out: IC50 hGAT2) was over 1000 µM in each case.
